Patent publication US10800772B2 (Gilead Sciences, Inc., priority 2016, dated 2020)
Like-named read-outs stand apart in the source and are kept apart here.

Columns and labels:
Format in all cases: cell-based, HIV-1
[1] = tested on: HIV-IIIb IN T174I BT; assay: Antiviral assay in MT4 cells, HIV-IIIb IN T174I BT virus (from viral breakthrough); details: Human immunodeficiency virus 1, IIIB, MT4, 120 h, read-out: T174I BT EC50, MT4 cells, HIV-IIIb IN T174I BT (viral breakthrough), 5 days, CellTiter-Glo
Procedure: (§1) Antiviral Assay in MT4 Cells
(§2) For the antiviral assay, 0.4 μL of 189X test concentration of 3-fold serially diluted compound in DMSO was added to 40 μL of cell growth medium (RPMI 1640, 10% FBS, 1% Penicillin-Streptomycin, 1% L-Glutamine, 1% HEPES) in each well of 384-well plate (10 concentrations) in quadruplicate.
(§3) 1 mL Aliquots of MT4 cells were pre-infected for 3 hours at 37° C. with 25 μL of cell growth medium (mock-infected) or a fresh 1:250 dilution of an HIV-IIIb (wildtype, IN T174I BT, or IN T174I DE) concentrated ABI stock (0.004 m.o.i.). IN T174I BT virus was derived from viral breakthrough (BT) assay as described in Mulato, A.; Hansen, D.; Thielen, A.; Porter, D.; Stepan, G.; White, K.; Daeumer, M.; Cihlar, T.; Yant, S. R. AIDS Research and Human Retrovirues, July 2016, ahead of print. doi:10.1089/aid.2016.0071. IN T174I DE virus was derived from serial passaging with dose escalation (DE) of test compound. Infected and uninfected cells were diluted in cell growth media and 35 μL (2000 cells) was added to each well of the assay plates.
(§4) Assay plates were then maintained in a humidified, 5% CO2 incubator at 37° C. After 5 days of incubation, 25 μl of 2× concentrated CellTiter-Glo™ Reagent (catalog # G7573, Promega Biosciences, Inc., Madison, Wis.) was added to each well of the assay plate. Cell lysis was carried out by incubating at room temperature for 10 minutes and then chemiluminescence was read using an Envision plate reader (PerkinElmer). EC50 values were calculated as the compound concentration that caused a 50% […] in luminescence signal, a measure of HIV-1 replication.

[2] = tested on: HIV-IIIb IN T174I DE; assay: Antiviral assay in MT4 cells, HIV-IIIb IN T174I DE virus (from dose escalation passaging); details: Human immunodeficiency virus 1, IIIB, MT4, 120 h, read-out: T174I DE EC50, MT4 cells, HIV-IIIb IN T174I DE (dose escalation), 5 days, CellTiter-Glo
Procedure: as §1, §2, §3, §4

[3] = tested on: HIV-IIIb (wildtype); assay: Antiviral assay in MT4 cells, HIV-IIIb wildtype; details: read-out: WT EC50
Procedure: as §1, §2, §3, §4

[4] = Human immunodeficiency virus 1, IIIB, MT4, 120 h
[5] = Human immunodeficiency virus 1, 120 h, MT4 cells, HIV-IIIb wildtype, 5 days, CellTiter-Glo

Compound | EC50 [1] [nM] | EC50 [2] [nM] | EC50 [3, 4] [nM] | EC50 [3, 5] [nM]
COCCN1CC[C@H](c2nn(C)c3ccc(-c4nc5cc(C)c([C@H](OC(C)(C)C)C(=O)O)c(-c6ccc(Cl)cc6)c5s4)cc23)C1 (single isomer, unassigned) [Compound 68] | 1160 | 1600 | 5 | 
Cc1cc2nc(-c3ccc4c(c3)c(N3CCC3=O)nn4C)sc2c(-c2ccc(Cl)cc2)c1[C@H](OC(C)(C)C)C(=O)O [Compound 3, (S)-2-(tert-butoxy)-2-(7-(4-chlorophenyl)-5-methyl-2-(1-methyl-3-(2-oxoazetidin-1-yl)-1H-indazol-5-yl)benzo[d]thiazol-6-yl)acetic Acid] | 5710 | 5710 | 43 | 
Cc1cc2nc(-c3ccc4c(c3)c(N3CCN5CCOC[C@@H]5C3)nn4C)sc2c(-c2ccc(Cl)cc2)c1[C@H](OC(C)(C)C)C(=O)O [Compound 4, (S)-2-(tert-butoxy)-2-(7-(4-chlorophenyl)-2-(3-((S)-hexahydropyrazino[2,1-c][1,4]oxazin-8(1H)-yl)-1-methyl-1H-indazol-5-yl)-5-methylbenzo[d]thiazol-6-yl)acetic Acid] | 1270 | 1740 | 10 | 
COC(=O)N1CC[C@@H]1CN1CCC(c2nn(C)c3ccc(-c4nc5cc(C)c([C@H](OC(C)(C)C)C(=O)O)c(-c6ccc(Cl)cc6)c5s4)cc23)CC1 [Compound 5, (S)-2-(tert-butoxy)-2-(7-(4-chlorophenyl)-2-(3-(1-(((R)-1-(methoxycarbonyl)azetidin-2-yl)methyl)piperidin-4-yl)-1-methyl-1H-indazol-5-yl)-5-methylbenzo[d]thiazol-6-yl)acetic Acid] | 106 | 169 | 3 | 
Cc1cc2nc(-c3ccc4c(c3)c(C3CCN(CC5CCO5)CC3)nn4C)sc2c(-c2ccc(Cl)cc2)c1[C@H](OC(C)(C)C)C(=O)O (stereo partly drawn) [Compound 6, (2S)-2-(tert-butoxy)-2-(7-(4-chlorophenyl)-5-methyl-2-(1-methyl-3-(1-(oxetan-2-ylmethyl)piperidin-4-yl)-1H-indazol-5-yl)benzo[d]thiazol-6-yl)acetic Acid] | 283 | 577 | 4 | 
CCC(=O)N1CC(N2CCC(c3nn(C)c4ccc(-c5nc6cc(C)c([C@H](OC(C)(C)C)C(=O)O)c(-c7ccc(Cl)cc7)c6s5)cc34)CC2)C1 [Compound 7, (S)-2-(tert-butoxy)-2-(7-(4-chlorophenyl)-5-methyl-2-(1-methyl-3-(1-(1-propionylazetidin-3-yl)piperidin-4-yl)-1H-indazol-5-yl)benzo[d]thiazol-6-yl)acetic Acid] | 114 | 138 | 14 | 
Cc1cc2nc(-c3ccc4c(c3)c(C3CCN(C5CN(C(C)C(F)(F)F)C5)CC3)nn4C)sc2c(-c2ccc(Cl)cc2)c1[C@H](OC(C)(C)C)C(=O)O (stereo partly drawn) [Compound 8, (2S)-2-(tert-butoxy)-2-(7-(4-chlorophenyl)-5-methyl-2-(1-methyl-3-(1-(1-(1,1,1-trifluoropropan-2-yl)azetidin-3-yl)piperidin-4-yl)-1H-indazol-5-yl)benzo[d]thiazol-6-yl)acetic Acid] | 1090 | 1330 | 13 | 
CC(=O)N1CC[C@H](N2CCC(c3nn(C)c4ccc(-c5nc6cc(C)c([C@H](OC(C)(C)C)C(=O)O)c(-c7ccc(Cl)cc7)c6s5)cc34)CC2)C1 [Compound 11, (S)-2-(2-(3-(1-((S)-1-acetylpyrrolidin-3-yl)piperidin-4-yl)-1-methyl-1H-indazol-5-yl)-7-(4-chlorophenyl)-5-methylbenzo[d]thiazol-6-yl)-2-(tert-butoxy)acetic Acid] | 85 | 166 | 8 | 
CC(=O)N1CC[C@@H](N2CCC(c3nn(C)c4ccc(-c5nc6cc(C)c([C@H](OC(C)(C)C)C(=O)O)c(-c7ccc(Cl)cc7)c6s5)cc34)CC2)C1 [Compound 12, (S)-2-(2-(3-(1-((R)-1-acetylpyrrolidin-3-yl)piperidin-4-yl)-1-methyl-1H-indazol-5-yl)-7-(4-chlorophenyl)-5-methylbenzo[d]thiazol-6-yl)-2-(tert-butoxy)acetic Acid] | 81 | 138 | 10 | 
Cc1cc2nc(-c3ccc4c(c3)c(N3C5CCC3CN(C3COC3)C5)nn4C)sc2c(-c2ccc(Cl)cc2)c1[C@H](OC(C)(C)C)C(=O)O [Compound 13, (2S)-2-(tert-butoxy)-2-(7-(4-chlorophenyl)-5-methyl-2-(1-methyl-3-(3-(oxetan-3-yl)-3,8-diazabicyclo[3.2.1]octan-8-yl)-1H-indazol-5-yl)benzo[d]thiazol-6-yl)acetic Acid] | 1230 | 3130 |  | 10
COC(=O)N1CC(N2CCC(c3nn(C(F)F)c4ccc(-c5nc6cc(C)c([C@H](OC(C)(C)C)C(=O)O)c(-c7ccc(Cl)cc7)c6s5)nc34)CC2)C1 [Compound 14, (S)-2-(tert-butoxy)-2-(7-(4-chlorophenyl)-2-(1-(difluoromethyl)-3-(1-(1-(methoxycarbonyl)azetidin-3-yl)piperidin-4-yl)-1H-pyrazolo[4,3-b]pyridin-5-yl)-5-methylbenzo[d]thiazol-6-yl)acetic Acid] | 109 | 304 | 5 | 
Cc1cc2nc(-c3cnc4c(n3)c(C3CCN(C5COC5)CC3)cn4C)sc2c(-c2ccc(Cl)cc2)c1[C@H](OC(C)(C)C)C(=O)O [Compound 16, (S)-2-(tert-butoxy)-2-(7-(4-chlorophenyl)-5-methyl-2-(5-methyl-7-(1-(oxetan-3-yl)piperidin-4-yl)-5H-pyrrolo[2,3-b]pyrazin-2-yl)benzo[d]thiazol-6-yl)acetic Acid] | 104 | 603 | 2 | 
Cc1cc2nc(-c3ccc4c(c3)c(C3=CCOCC3)nn4C)sc2c(-c2ccc(Cl)cc2)c1[C@H](OC(C)(C)C)C(=O)O [Compound 18, (S)-2-(tert-butoxy)-2-(7-(4-chlorophenyl)-2-(3-(3,6-dihydro-2H-pyran-4-yl)-1-methyl-1H-indazol-5-yl)-5-methylbenzo[d]thiazol-6-yl)acetic Acid] | 2150 | 4500 | 14 | 
Cc1cc2nc(-c3ccc4c(c3)c(C3CCN(C5(C)COC5)CC3)nn4C)sc2c(-c2ccc(Cl)cc2)c1[C@H](OC(C)(C)C)C(=O)O [Compound 20, (S)-2-(tert-butoxy)-2-(7-(4-chlorophenyl)-5-methyl-2-(1-methyl-3-(1-(3-methyloxetan-3-yl)piperidin-4-yl)-1H-indazol-5-yl)benzo[d]thiazol-6-yl)acetic Acid] | 287 | 542 | 7 | 
Cc1cc2nc(-c3ccc4c(c3)c(C3CCN(C5COC5)CC3)nn4C)sc2c(-c2ccc(Cl)cc2)c1[C@H](OC1CC1)C(=O)O [Compound 22, (S)-2-(7-(4-chlorophenyl)-5-methyl-2-(1-methyl-3-(1-(oxetan-3-yl)piperidin-4-yl)-1H-indazol-5-yl)benzo[d]thiazol-6-yl)-2-cyclopropoxyacetic Acid] | 48 | 108 |  | 23
Cc1cc2nc(-c3ccc4c(c3)c(C3CCN(C(=O)OC(C)(C)C)CC3)nn4C)sc2c(-c2ccc(Cl)cc2)c1[C@H](OC(C)(C)C)C(=O)O [Compound 23, (S)-2-(tert-butoxy)-2-(2-(3-(1-(tert-butoxycarbonyl)piperidin-4-yl)-1-methyl-1H-indazol-5-yl)-7-(4-chlorophenyl)-5-methylbenzo[d]thiazol-6-yl)acetic Acid] | 987 | 356 | 99 | 
Cc1cc2nc(-c3ccc4c(c3)c(N3CCN(C)CC3=O)nn4C)sc2c(-c2ccc(Cl)cc2)c1[C@H](OC(C)(C)C)C(=O)O [Compound 87, (S)-2-(tert-butoxy)-2-(7-(4-chlorophenyl)-5-methyl-2-(1-methyl-3-(4-methyl-2-oxopiperazin-1-yl)-1H-indazol-5-yl)benzo[d]thiazol-6-yl)acetic acid] |  |  | 13 | 
Cc1cc2nc(-c3ccc4c(n3)c(N3CCN(C)CC3)nn4C)sc2c(-c2ccc(Cl)cc2)c1[C@H](OC(C)(C)C)C(=O)O [Compound 196, (S)-2-(tert-butoxy)-2-(7-(4-chloro-phenyl)-5-methyl-2-(1-methyl-3-(4-methylpiperazin-1-yl)-1H-pyrazolo [4,3-b]pyridin-5-yl)benzo[d]thiazol-6-yl)acetic acid] |  |  | 4 | 
